According to US20130178453A1, “Cannabinoid Agonists” (priority 2010, published 2013):
Several values for one entry are separate records, joined by “and”; a condition that tells them apart may be missing. Equal values may be shown once.

Experiments:
[1] = biological target: T1, hCB2 (Homo sapiens, UniProt P34972); test: hCB2 cAMP agonist assay (HEK-293 cells); type: cell-based
In short: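 HEK-293 cells stably expressing hCB2, treated 30 min at 37° C with compound in HBSS/10 mM HEPES/0.1% BSA alongside forskolin (90 uM in the 3× solution, not final).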

[2] = biological target: T2, hCB1 (Homo sapiens, UniProt P21554); test: hCB1 GTPγS agonist assay (HEK-293 membranes); type: biochemical
Excerpt: cDNA expression clones for human CB 1 (hCB1, Genbank Accession No. AY225225) and human CB2 (hCB2, Genbank Accession No. AY242132) expressed in vector pcDNA3.1+ were purchased from UMR cDNA Resource Center, Rolla, Mo. (Clone ID CNR01L000 for hCB1; CNR0200000 for hCB2).
Stable, HEK-293-derived cell lines that recombinantly express hCB1 or hCB2 were established. In brief, the clone hCB1 (CNR1L) or hCB2 (CNR2) was transfected into human embryonic kidney cells (HEK-293) using Lipofectamine 2000 (Gibco, Cat#11668-019) according to the manufacturer's protocol. Transfected clones were isolated by single colony purification and clones were screened for receptor expression using a whole cell, ^3H—CP 55,940 radioligand binding assay. HEK-293 stable cells were maintained in Dulbecco's modified Eagles medium (DMEM) containing 10% fetal bovine serum, 2 mM L-glutamine and 0.5 mg/mL G-418.
Membranes were isolated from transfected cells as follows. Monolayers of cultured cells were washed twice with phosphate-buffered saline (PBS). Cells were scraped into 20 mM HEPES, pH 7.4, 10 mM EDTA containing complete cocktail protease inhibitors (Roche, Catalog #11 697 498 001), and were homogenized by an electric-powered mechanical probe homogenizer (Omni GLH; probe G7-195S) for 40 seconds at 7000 rpm. Homogenates were centrifuged 10 minutes at 1000×g at 4° C. The supernatant was collected and was centrifuged for 1 hour at 40,000×g. The supernatant was then decanted and the resulting pellet was re-suspended in 20 mM HEPES, pH 7.4, 5 mM MgCl2, 1 mM EDTA, 10% sucrose with complete cocktail protease inhibitors. Protein concentration of membrane suspensions were measured by Bradford Protein Assay using bovine serum albumin as the standard (BioRad catalog #500-0006). Protein concentrations of membrane suspensions were adjusted with the final buffer in the range of 5 to 10 mg/mL and were stored at −80° C. until further use.
^35S GTPγS binding assays were performed by incubating recombinant cell membranes prepared above (5 μg) in the presence of scintillation proximity assay beads (SPA beads, Catalog #RPNQ0252 GE Healthcare, Buckinghamshire, England) in GTPγS binding buffer [50 mM HEPES (pH 7.4), 100 mM NaCl, 5 mM MgCl2, 0.001% saponin (Sigma catalog #S4521)] supplemented with 20 uM GDP (Sigma catalog #G7127) in the presence or absence of test compound. The reaction was carried out in 96-well microplates with 0.1 nM [^35S]GTPγS (specific activity=1250 Ci/mmol; Perkin Elmer catalog #NEG030X250UC) in a final volume of 100 μL. After a 90 min room temperature incubation, the reaction was analyzed using a scintillation counter (Perkin Elmer Microbeta instrument). Binding data were analyzed using GraphPad Prism.

[3] = biological target: T1, hCB2; test: hCB2 GTPγS agonist assay (HEK-293 membranes); type: biochemical
In short: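 Membranes from HEK-293 cells transfected with human CB2 (5 μg) incubated with SPA beads, 0.1 nM [35S]GTPγS and 20 uM GDP in 50 mM HEPES pH 7.4, 100 mM NaCl, 5 mM MgCl2, 0.001% saponin. Incubation 90 min at room temperature. Agonist-stimulated binding read by scintillation counting.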

[4] = biological target: T1, hCB2; test: hCB2 radioligand binding assay ([3H]-CP 55,940 displacement); conditions: hCB2 IC50 (CP displ, nM, HEK), HEK membranes
In short: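 Membranes from cells transfected with human CB2 cDNA (pcDNA3.1+), kept in 20 mM HEPES pH 7.4, MgCl2, EDTA, sucrose with protease inhibitors.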

[5] = biological target: T2, hCB1; test: hCB1 radioligand binding assay ([3H]-CP 55,940 displacement); conditions: hCB1 IC50 (CP displ, nM, HEK), HEK membranes
In short: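 Membranes from stable HEK-293 cells expressing recombinant hCB1 (2-10 μg protein) incubated 90 minutes at room temperature with 0.5 nM [3H]-CP 55,940 in 50 mM Tris-HCl pH 7.5, 5 mM MgCl2, 2.5 mM EDTA, 0.1% fatty acid free BSA. Filtration then scintillation counting; nonspecific binding with 1 μM unlabelled CP 55,940.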

[6] = biological target: T2, hCB1; test: hCB1 cAMP agonist assay (HEK-293 cells); type: cell-based
[7] = GTPγS agonist, HEK membranes, read-out: hCB1 EC50 (GTPyS ag, nM, HEK)
[8] = cAMP agonist, HEK, 96-well, read-out: hCB1 EC50 (cAMP ag, nM, HEK (96-well))

T2 sequence (P21554 whole entry): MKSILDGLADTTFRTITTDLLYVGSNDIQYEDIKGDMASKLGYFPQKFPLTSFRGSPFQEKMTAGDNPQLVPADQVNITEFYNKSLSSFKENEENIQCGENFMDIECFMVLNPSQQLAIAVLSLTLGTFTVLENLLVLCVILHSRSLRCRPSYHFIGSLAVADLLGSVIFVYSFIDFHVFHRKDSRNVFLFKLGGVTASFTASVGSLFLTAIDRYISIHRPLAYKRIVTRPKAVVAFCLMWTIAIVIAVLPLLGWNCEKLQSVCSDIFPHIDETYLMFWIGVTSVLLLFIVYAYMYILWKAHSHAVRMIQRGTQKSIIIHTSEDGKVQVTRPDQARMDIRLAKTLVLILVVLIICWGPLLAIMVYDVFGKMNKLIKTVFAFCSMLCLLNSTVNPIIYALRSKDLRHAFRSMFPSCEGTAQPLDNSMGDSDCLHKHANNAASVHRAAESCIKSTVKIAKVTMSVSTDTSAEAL
T1 sequence (P34972 whole entry): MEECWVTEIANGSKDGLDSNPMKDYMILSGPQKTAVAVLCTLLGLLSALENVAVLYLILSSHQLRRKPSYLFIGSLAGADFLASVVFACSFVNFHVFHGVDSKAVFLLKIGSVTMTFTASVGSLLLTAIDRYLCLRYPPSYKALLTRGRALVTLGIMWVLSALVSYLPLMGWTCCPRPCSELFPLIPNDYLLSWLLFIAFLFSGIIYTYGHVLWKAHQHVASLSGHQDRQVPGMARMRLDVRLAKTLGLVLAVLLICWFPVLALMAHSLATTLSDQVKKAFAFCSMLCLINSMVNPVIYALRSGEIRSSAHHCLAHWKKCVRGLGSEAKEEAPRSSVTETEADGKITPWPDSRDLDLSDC

SMILES	EC50 [1]	EC50 [2, 7]	EC50 [3]	IC50 [4]	IC50 [5]	EC50 [2]	EC50 [6]	EC50 [6, 8]	EC50 ([6]; cAMP agonist, HEK, 24-well, read-out: hCB1 EC50 (cAMP ag, nM HEK (24-well)))
CCCn1c(C(=O)c2c(C)n(CCN3CCOCC3)c3sccc23)cc2ccccc21 [Compound I-11]	< 100 nM	100 to 1000 nM	< 100 nM	< 100 nM	< 100 nM	–	–	–	–
CCn1c(C(=O)c2cn(CC3CCOCC3)c3ccccc23)cc2ccsc21 [Compound I-16]	< 100 nM	–	< 100 nM	< 100 nM	< 100 nM	< 100 nM	< 100 nM	–	–
CCn1c(C(=O)c2cn(CCCNS(C)(=O)=O)c3ccccc23)cc2ccsc21 [Compound I-28]	< 100 nM	1000 to 10000 nM	< 100 nM	< 100 nM	100 to 1000 nM	–	–	100 to 1000 nM	–
CCCn1cc(C(=O)c2cc3ccsc3n2CC)c2cccnc21 [Compound I-34]	< 100 nM	–	< 100 nM	< 100 nM	1000 to 10000 nM	100 to 1000 nM	1000 to 10000 nM	–	–
CCCn1c(C(=O)c2cn(CC3CCOCC3)c3ccccc23)cc2ccsc21 [Compound I-41]	< 100 nM	–	< 100 nM	< 100 nM	< 100 nM	< 100 nM	< 100 nM	–	–
CCCn1c(C(=O)c2cn(CC)c3ccccc23)cc2ccsc21 [Compound I-42]	< 100 nM	100 to 1000 nM	< 100 nM	< 100 nM	< 100 nM	–	–	100 to 1000 nM	–
CCCn1cc(C(=O)c2cc3ccsc3n2CCC)c2cccnc21 [Compound I-45]	< 100 nM	–	< 100 nM	< 100 nM	< 100 nM and 100 to 1000 nM	100 to 1000 nM	100 to 1000 nM	–	–
CCCn1c(C(=O)c2c(C)n(CCC3CCOCC3)c3ccccc23)cc2ccsc21 [Compound I-57]	< 100 nM	–	< 100 nM	< 100 nM	100 to 1000 nM	100 to 1000 nM	100 to 1000 nM	–	–
CCCCCn1c(C)c(C(=O)c2cc3ccsc3n2CCC)c2ccccc21 [Compound I-60]	< 100 nM	–	< 100 nM	< 100 nM	< 100 nM	100 to 1000 nM	< 100 nM	–	–
CCCn1cc(C(=O)c2cc3ccsc3n2CCC)c2ccccc21 [Compound I-62]	< 100 nM	–	< 100 nM	< 100 nM	< 100 nM	100 to 1000 nM	< 100 nM	–	–
CCCn1c(C(=O)c2c(C)n(CC3CCOCC3)c3ccccc23)cc2ccsc21 [Compound I-66]	< 100 nM	–	< 100 nM	< 100 nM	100 to 1000 nM	100 to 1000 nM	< 100 nM	–	–
CCCn1cc(C(=O)c2cc3ccsc3n2CC)c2ccccc21 [Compound I-70]	< 100 nM	–	< 100 nM	< 100 nM	100 to 1000 nM	100 to 1000 nM	100 to 1000 nM	–	–
CCCn1c(C(=O)c2c(C)n(CCC)c3sccc23)cc2ccsc21 [Compound I-83]	< 100 nM	100 to 1000 nM	–	–	–	–	–	< 100 nM	< 100 nM
CCCn1c(C(=O)c2c(C)[nH]c3sccc23)cc2ccsc21 [Compound I-84]	–	> 10000 nM	–	–	–	–	–	< 100 nM	–
CCn1c(C(=O)c2c3c(n(CC4CCOCC4)c2C)CCCC3)cc2ccsc21 [Compound I-86]	< 100 nM	100 to 1000 nM	< 100 nM	< 100 nM	< 100 nM	–	–	100 to 1000 nM	–
